How the values were obtained:
[1] = target: T1, Recombinant ROCK1 (amino acids 1-477) (Homo sapiens, UniProt Q13464); assay: ROCK inhibition assay, LANCE Ultra TR-FRET kinase assay (ROCK1); type: biochemical; settings: 1 μM ATP, 50 nM ULight-CREBtide substrate
T1 construct: Recombinant ROCK1 (amino acids 1-477); by word order, ROCK1 from Carna Biosciences
Method in brief: (§1)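 LANCE Ultra TR-FRET kinase assay with recombinant ROCK1 (aa 1-477) or ROCK2 (aa 5-554), 50 nM ULight-CREBtide and ATP at 1 μM (ROCK1) or 4 μM (ROCK2) in HEPES pH 7.5 with MgCl2, 1 h at room temperature. EDTA stop with Eu anti-phospho-CREB Ser133 antibody; 665/615 nm read gives IC50.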

[2] = target: T2, Recombinant ROCK2 (amino acids 5-554) (Homo sapiens, UniProt O75116); assay: ROCK inhibition assay, LANCE Ultra TR-FRET kinase assay (ROCK2); type: biochemical; settings: 4 μM ATP, 50 nM ULight-CREBtide substrate
T2 construct: ROCK2 (amino acids 5-554); by word order, ROCK2 from SignalChem
Method in brief: as §1

T2 sequence (O75116 5-554): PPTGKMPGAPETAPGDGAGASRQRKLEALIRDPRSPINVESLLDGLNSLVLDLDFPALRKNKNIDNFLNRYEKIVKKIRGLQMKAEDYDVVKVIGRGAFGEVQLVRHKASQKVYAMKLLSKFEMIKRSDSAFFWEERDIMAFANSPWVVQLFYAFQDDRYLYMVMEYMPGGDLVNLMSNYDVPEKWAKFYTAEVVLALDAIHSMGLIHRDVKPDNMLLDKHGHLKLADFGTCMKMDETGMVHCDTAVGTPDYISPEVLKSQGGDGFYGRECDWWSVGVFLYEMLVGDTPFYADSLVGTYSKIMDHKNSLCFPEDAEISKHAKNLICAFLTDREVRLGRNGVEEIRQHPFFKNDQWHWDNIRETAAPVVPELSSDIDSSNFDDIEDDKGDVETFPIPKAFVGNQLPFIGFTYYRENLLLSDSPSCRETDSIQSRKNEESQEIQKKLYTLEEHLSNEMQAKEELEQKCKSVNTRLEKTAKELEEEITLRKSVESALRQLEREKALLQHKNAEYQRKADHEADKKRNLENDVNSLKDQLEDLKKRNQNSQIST
T1 sequence (Q13464 1-477): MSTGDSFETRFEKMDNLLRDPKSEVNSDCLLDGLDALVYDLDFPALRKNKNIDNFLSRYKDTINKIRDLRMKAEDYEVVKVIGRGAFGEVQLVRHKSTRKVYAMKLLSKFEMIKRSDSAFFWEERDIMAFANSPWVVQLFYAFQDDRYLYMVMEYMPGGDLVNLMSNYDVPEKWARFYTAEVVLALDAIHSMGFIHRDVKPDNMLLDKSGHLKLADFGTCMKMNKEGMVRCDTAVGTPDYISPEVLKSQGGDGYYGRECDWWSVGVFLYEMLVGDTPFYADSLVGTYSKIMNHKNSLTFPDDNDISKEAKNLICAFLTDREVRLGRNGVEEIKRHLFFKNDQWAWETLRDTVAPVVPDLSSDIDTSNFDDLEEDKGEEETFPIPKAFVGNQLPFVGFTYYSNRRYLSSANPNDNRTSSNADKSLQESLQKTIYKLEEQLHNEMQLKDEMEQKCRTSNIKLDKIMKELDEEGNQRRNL

SMILES	IC50 [1]	IC50 [2]
CS(=O)(=O)Nc1ccc(NC(=O)c2cccc(Cn3cnc4cc(-c5cn[nH]c5C(F)(F)F)ccc4c3=O)c2)cc1 [Compound 385]	0.101 to 0.5 µM	0.01 to 0.1 µM
[2H]C([2H])([2H])NC(=O)c1cc(F)cc(Cn2cnc3cc(-c4cn[nH]c4C(F)(F)F)ccc3c2=O)c1 [Compound 387]	0.011 to 0.1 µM	< 0.01 µM
CNC(=O)c1cc(F)cc(C(C)n2cnc3cc(-c4cn[nH]c4C(F)(F)F)ccc3c2=O)c1 (stereo not drawn) [Compound 388]	0.011 to 0.1 µM	< 0.01 µM
CNC(=O)c1cc(Cn2cnc3cc(-c4cn[nH]c4C(F)(F)F)ccc3c2=O)ccc1F [Compound 389]	0.011 to 0.1 µM	0.01 to 0.1 µM
CNC(=O)c1cccc(Cn2cnc3cc(-c4cn[nH]c4C(F)F)ccc3c2=O)c1 [Compound 391]	0.011 to 0.1 µM	< 0.01 µM
[2H]C([2H])([2H])NC(=O)c1cccc(Cn2cnc3cc(-c4cn[nH]c4C(F)F)ccc3c2=O)c1 [Compound 392]	0.011 to 0.1 µM	< 0.01 µM
O=C(NCCO)c1cccc(Cn2cnc3cc(-c4cn[nH]c4C(F)F)ccc3c2=O)c1 [Compound 393]	0.011 to 0.1 µM	< 0.01 µM
CN(C)CCNC(=O)c1cccc(Cn2cnc3cc(-c4cn[nH]c4C(F)F)ccc3c2=O)c1 [Compound 394]	0.011 to 0.1 µM	0.01 to 0.1 µM
O=C(NCC1CCOCC1)c1cccc(Cn2cnc3cc(-c4cn[nH]c4C(F)F)ccc3c2=O)c1 [Compound 396]	0.011 to 0.1 µM	< 0.01 µM
O=C(NCc1ccnc(F)c1)c1cccc(Cn2cnc3cc(-c4cn[nH]c4C(F)F)ccc3c2=O)c1 [Compound 397]	0.011 to 0.1 µM	< 0.01 µM
CS(=O)(=O)c1cccc(CNC(=O)c2cccc(Cn3cnc4cc(-c5cn[nH]c5C(F)F)ccc4c3=O)c2)c1 [Compound 398]	0.101 to 0.5 µM	0.01 to 0.1 µM
CS(=O)(=O)Nc1cccc(CNC(=O)c2cccc(Cn3cnc4cc(-c5cn[nH]c5C(F)F)ccc4c3=O)c2)c1 [Compound 399]	0.101 to 0.5 µM	0.01 to 0.1 µM
CN(C)c1cccc(CNC(=O)c2cccc(Cn3cnc4cc(-c5cn[nH]c5C(F)F)ccc4c3=O)c2)c1 [Compound 400]	0.101 to 0.5 µM	0.01 to 0.1 µM
CNC(=O)c1cc(F)cc(Cn2cnc3cc(-c4cn[nH]c4C(F)F)ccc3c2=O)c1 [Compound 401]	0.011 to 0.1 µM	< 0.01 µM
[2H]C([2H])([2H])NC(=O)c1cc(F)cc(Cn2cnc3cc(-c4cn[nH]c4C(F)F)ccc3c2=O)c1 [Compound 402]	0.011 to 0.1 µM	< 0.01 µM
CNC(=O)c1cncc(Cn2cnc3cc(-c4cn[nH]c4Cl)ccc3c2=O)c1 [Compound 403]	> 0.501 µM	0.1 to 0.5 µM
CNC(=O)c1cccc(C(C)n2cnc3cc(-c4cn[nH]c4Cl)ccc3c2=O)c1 (stereo not drawn) [Compound 406]	0.011 to 0.1 µM	< 0.01 µM
O=C(N[C@H]1CC[C@@H](O)CC1)c1cccc(Cn2cnc3cc(-c4cn[nH]c4Cl)ccc3c2=O)c1 [Compound 407]	0.011 to 0.1 µM	< 0.01 µM
CNC(=O)c1cccc(Cn2cnc3cc(-c4conc4C)ccc3c2=O)c1 [Compound 411]	0.011 to 0.1 µM	< 0.01 µM
[2H]C([2H])([2H])NC(=O)c1cccc(Cn2cnc3cc(-c4conc4C)ccc3c2=O)c1 [Compound 412]	0.011 to 0.1 µM	< 0.01 µM
Cc1nocc1-c1ccc2c(=O)n(Cc3cccc(C(=O)NC(C)C)c3)cnc2c1 [Compound 414]	0.101 to 0.5 µM	0.01 to 0.1 µM

SMILES	IC50 [1]	IC50 [2]
Cc1nocc1-c1ccc2c(=O)n(Cc3cccc(C(=O)NCC4COC4)c3)cnc2c1 [Compound 415]	0.011 to 0.1 µM	< 0.01 µM
Cc1nocc1-c1ccc2c(=O)n(Cc3cccc(C(=O)NCC4CCOCC4)c3)cnc2c1 [Compound 416]	0.011 to 0.1 µM	< 0.01 µM
Cc1nocc1-c1ccc2c(=O)n(Cc3cccc(C(=O)NCCN4CCOCC4)c3)cnc2c1 [Compound 420]	0.011 to 0.1 µM	< 0.01 µM
Cc1nocc1-c1ccc2c(=O)n(Cc3cccc(C(=O)NCC(F)(F)F)c3)cnc2c1 [Compound 421]	0.011 to 0.1 µM	< 0.01 µM
CNC(=O)c1cc(F)cc(Cn2cnc3cc(-c4conc4C)ccc3c2=O)c1 [Compound 422]	0.011 to 0.1 µM	< 0.01 µM
[2H]C([2H])([2H])NC(=O)c1cc(F)cc(Cn2cnc3cc(-c4conc4C)ccc3c2=O)c1 [Compound 423]	0.011 to 0.1 µM	< 0.01 µM
[2H]C([2H])([2H])NC(=O)c1cccc(Cn2cnc3cc(-c4ccnn4C)ccc3c2=O)c1 [Compound 425]	0.011 to 0.1 µM	< 0.01 µM
CNC(=O)c1cccc(C(C)n2cnc3cc(-c4ccnn4C)ccc3c2=O)c1 (stereo not drawn) [Compound 426]	0.011 to 0.1 µM	< 0.01 µM
Cn1nccc1-c1ccc2c(=O)n(Cc3cccc(C(=O)N[C@H]4C[C@@H](O)C4)c3)cnc2c1 [Compound 427]	0.011 to 0.1 µM	< 0.01 µM
Cn1nccc1-c1ccc2c(=O)n(Cc3cccc(C(=O)N[C@H]4C[C@H](O)C4)c3)cnc2c1 [Compound 428]	0.011 to 0.1 µM	< 0.01 µM
Cn1nccc1-c1ccc2c(=O)n(Cc3cccc(C(=O)N[C@H]4CC[C@@H](O)CC4)c3)cnc2c1 [Compound 429]	0.011 to 0.1 µM	< 0.01 µM
CN1CCC(NC(=O)c2cccc(Cn3cnc4cc(-c5ccnn5C)ccc4c3=O)c2)CC1 [Compound 430]	0.011 to 0.1 µM	< 0.01 µM
Cn1nccc1-c1ccc2c(=O)n(Cc3cccc(C(=O)NCC4COC4)c3)cnc2c1 [Compound 431]	0.011 to 0.1 µM	0.01 to 0.1 µM
Cn1nccc1-c1ccc2c(=O)n(Cc3cccc(C(=O)NCCO)c3)cnc2c1 [Compound 432]	0.101 to 0.5 µM	0.01 to 0.1 µM
CNC(=O)c1cccc(Cn2cnc3cc(-c4ccnc(N)c4)ccc3c2=O)c1 [Compound 433]	0.101 to 0.5 µM	0.01 to 0.1 µM
Nc1cc(-c2ccc3c(=O)n(Cc4cccc(C(=O)NC5COC5)c4)cnc3c2)ccn1 [Compound 434]	0.101 to 0.5 µM	0.01 to 0.1 µM
Nc1cc(-c2ccc3c(=O)n(Cc4cccc(C(=O)NC5CCOCC5)c4)cnc3c2)ccn1 [Compound 435]	0.101 to 0.5 µM	0.01 to 0.1 µM
CN1CCC(NC(=O)c2cccc(Cn3cnc4cc(-c5ccnc(N)c5)ccc4c3=O)c2)CC1 [Compound 436]	0.011 to 0.1 µM	< 0.01 µM
Nc1cc(-c2ccc3c(=O)n(Cc4cccc(C(=O)NCC5CCOCC5)c4)cnc3c2)ccn1 [Compound 438]	0.011 to 0.1 µM	0.01 to 0.1 µM
CNC(=O)c1cccc(Cn2cnc3cc(-c4cnnn4C)ccc3c2=O)c1 [Compound 439]	> 0.501 µM	> 0.5 µM
CNC(=O)c1cccc([C@@H](C)n2cnc3cc(-c4cn[nH]c4C)ccc3c2=O)c1 [Compound 441]	0.011 to 0.1 µM	< 0.01 µM

The next lines start with the values.

IC50 [1]	IC50 [2]	SMILES
0.011 to 0.1 µM	< 0.01 µM	O=C(NC1CCN(C2COC2)CC1)c1cccc(Cn2cnc3cc(-c4cn[nH]c4C(F)(F)F)ccc3c2=O)c1 [Compound 377]
< 0.01 µM	< 0.01 µM	CN1CCC(NC(=O)c2cccc(Cn3cnc4cc(-c5cn[nH]c5C(F)(F)F)ccc4c3=O)c2)CC1 [Compound 378]
0.011 to 0.1 µM	< 0.01 µM	O=C(NCC1CCOCC1)c1cccc(Cn2cnc3cc(-c4cn[nH]c4C(F)(F)F)ccc3c2=O)c1 [Compound 379]
0.011 to 0.1 µM	< 0.01 µM	O=C(NCC1COC1)c1cccc(Cn2cnc3cc(-c4cn[nH]c4C(F)(F)F)ccc3c2=O)c1 [Compound 380]
< 0.01 µM	< 0.01 µM	O=C(NCC1CCNCC1)c1cccc(Cn2cnc3cc(-c4cn[nH]c4C(F)(F)F)ccc3c2=O)c1 [Compound 381]
0.011 to 0.1 µM	< 0.01 µM	O=C(N[C@H]1CC[C@@H](O)CC1)c1cccc(Cn2cnc3cc(-c4cn[nH]c4C(F)(F)F)ccc3c2=O)c1 [Compound 382]
0.011 to 0.1 µM	< 0.01 µM	O=C(N[C@H]1CC[C@H](O)CC1)c1cccc(Cn2cnc3cc(-c4cn[nH]c4C(F)(F)F)ccc3c2=O)c1 [Compound 383]
0.011 to 0.1 µM	0.01 to 0.1 µM	O=C(NCCO)c1cccc(Cn2cnc3cc(-c4cn[nH]c4C(F)(F)F)ccc3c2=O)c1 [Compound 384]
0.011 to 0.1 µM	< 0.01 µM	CNC(=O)c1cc(F)cc(Cn2cnc3cc(-c4cn[nH]c4C(F)(F)F)ccc3c2=O)c1 [Compound 386]
< 0.01 µM	< 0.01 µM	CN1CCC(CNC(=O)c2cccc(Cn3cnc4cc(-c5cn[nH]c5C(F)F)ccc4c3=O)c2)CC1 [Compound 395]
< 0.01 µM	< 0.01 µM	CNC(=O)c1cccc(Cn2cnc3cc(-c4cn[nH]c4Cl)ccc3c2=O)c1 [Compound 404]
< 0.01 µM	< 0.01 µM	[2H]C([2H])([2H])NC(=O)c1cccc(Cn2cnc3cc(-c4cn[nH]c4Cl)ccc3c2=O)c1 [Compound 405]
< 0.01 µM	< 0.01 µM	CN1CCC(NC(=O)c2cccc(Cn3cnc4cc(-c5cn[nH]c5Cl)ccc4c3=O)c2)CC1 [Compound 408]
< 0.01 µM	< 0.01 µM	O=C(NC1CCNCC1)c1cccc(Cn2cnc3cc(-c4cn[nH]c4Cl)ccc3c2=O)c1 [Compound 409]
< 0.01 µM	< 0.01 µM	CN1CCC(CNC(=O)c2cccc(Cn3cnc4cc(-c5cn[nH]c5Cl)ccc4c3=O)c2)CC1 [Compound 410]
< 0.01 µM	< 0.01 µM	Cc1nocc1-c1ccc2c(=O)n(Cc3cccc(C(=O)NCC4CCN(C)CC4)c3)cnc2c1 [Compound 417]
< 0.01 µM	< 0.01 µM	Cc1nocc1-c1ccc2c(=O)n(Cc3cccc(C(=O)NCC4CCNCC4)c3)cnc2c1 [Compound 418]
< 0.01 µM	< 0.01 µM	Cc1nocc1-c1ccc2c(=O)n(Cc3cccc(C(=O)NCCc4cccnc4)c3)cnc2c1 [Compound 419]

From patent US12064426B2, “Selective inhibitors of ROCK1 and ROCK2 protein kinases and uses thereof” (GENOSCO Inc., priority 2021, dated 2024)
